Like-named read-outs stand apart in the source and are kept apart here.
Tests used:
[1] = Metabolic stability, liver microsomes; type: in vitro ADME; details: Rat, 37 °C, read-out: Liver microsomes t1/2 (converted)
[2] = Pharmacokinetics after oral and intravenous administration; type: in vivo, rats (Sprague Dawley); details: male, plasma, Rat, Dose PO/IV 25/1 mg/kg
Protocol: (§1) therapeutic potential in acute myeloid leukemia
(§2) sheet for further calculations.
(§3) Three male Beagle dogs were administered

MOLM-13 = test: MTS viability assay, 72 h; details: Homo sapiens, MOLM-13, 72 h
Protocol: (§11) 15-25 ×10^3 of MV-4-11, MOLM-13, MOLM-14, MOLM-16, KG-1, Eol-1, SKM-1, PL-21, GDM-1, SKNO-1, RS4;11, Kasumi-3 and Kasumi-6 cells were seeded in 150 μL of culture medium onto individual wells in a 96 well plates, in triplicates. On the same day, 50 μL of medium containing tested inhibitor was added to the wells. Each compound was tested at 8 concentrations, in triplicates. As a negative control, the medium containing 0.1% DMSO was used. […] Staurosporine was used at 10 μM as a positive control. One the day of drug addition, basal signal from untreated cells was measured from in triplicate to determine time zero (T0). […] GI50 and LC50 values were extrapolated from a variable (four-parameter) dose-response curve fitted in GraphPad Prism.

[3] = Pharmacokinetics after oral and intravenous administration; type: in vivo, mice (CD-1); details: female, CD-1, plasma, Mouse, Dose PO/IV 50/15 mg/kg
Protocol: as §1, §2, §3

[4] = Metabolic stability, liver microsomes; type: in vitro ADME; details: Mouse, 37 °C, read-out: Liver microsomes t1/2 (converted)
[5] = Blood biochemistry in mice with MV-4-11 tumors; type: in vivo; details: treatment day 15
From the text: All animals were handled in strict accordance with good animal practice as defined by the relevant national and local animal welfare bodies. SCID and SCID/beige C.B-17 mice were provided by Harlan Laboratories or Charles River Laboratories, and were maintained in pathogen free conditions. For the xenograft experiments, age-matched (9-11 weeks old) females were used. 5×10^6 of MV-4-11 or MOLM-16 cells were suspended in a mixture (1:1, v:v) of PBS with Matrigel (BD Biosciences,) and injected subcutaneously (sc), in a total volume of 100 μL, above the groin on the right hind limb. For MOLM-13 and KG-1 cells, a mixture (3:1, v:v) of PBS and Matrigel HC (BD Bioscience,) was used to inject 5 × 10^6 of cell per mouse subcutaneously (sc), in a total volume of 100 μL. When tumors reached 100-130 mm^3, mice were randomized into uniform groups (6-9 mice per group) and subsequently administered the compound. […] At the end of the experiment, mice were anesthetized with isofluran and blood samples for total cell counts and biochemistry were obtained by retro-orbital bleeding. […] 5×10^6 cells suspended in a mixture (3:1, v:v) of PBS and Matrigel were injected as described above. When the tumor volume reached ~120 mm^3, mice were randomized into uniform groups (5 mice per group) and the compound then administered. […] Tumor volume was monitored every second day and calculated using the formula: TV = (a^2×b)/2, where “a” is the short axis in millimeters, and “b” is the long axis in millimeters. Body weight was assessed every day.
Supplementary Table 9: Related to Figure 5C. […] The assessment of
was performed on treatment day 15.
AST – Aspartate aminotransferase, ALT – Alanine transaminase, ALP – alkaline phosphatase, UREA – blood urea nitrogen,
CREA – Creatinine, CK – Creatine kinase, TP- total protein; ALB – Albumin. […]

[6] = Metabolic stability, liver S9 fraction; type: in vitro ADME; details: Dog, 37 °C, read-out: Liver S9 fraction t1/2 (converted)
[7] = Metabolic stability, liver microsomes; type: in vitro ADME; details: Human, 37 °C, read-out: Liver microsomes t1/2 (converted)
MOLM-13 xenografts = test: MOLM-13 subcutaneous xenograft; type: in vivo; details: MOLM-13, SCID mice; AC220 10 mg/kg QD, other doses not given
From the text: All animals were handled in strict accordance with good animal practice as defined by the relevant national and local animal welfare bodies. SCID and SCID/beige C.B-17 mice were provided by Harlan Laboratories or Charles River Laboratories, and were maintained in pathogen free conditions. For the xenograft experiments, age-matched (9-11 weeks old) females were used. 5×10^6 of MV-4-11 or MOLM-16 cells were suspended in a mixture (1:1, v:v) of PBS with Matrigel (BD Biosciences,) and injected subcutaneously (sc), in a total volume of 100 μL, above the groin on the right hind limb. For MOLM-13 and KG-1 cells, a mixture (3:1, v:v) of PBS and Matrigel HC (BD Bioscience,) was used to inject 5 × 10^6 of cell per mouse subcutaneously (sc), in a total volume of 100 μL. When tumors reached 100-130 mm^3, mice were randomized into uniform groups (6-9 mice per group) and subsequently administered the compound. […] At the end of the experiment, mice were anesthetized with isofluran and blood samples for total cell counts and biochemistry were obtained by retro-orbital bleeding. […] 5×10^6 cells suspended in a mixture (3:1, v:v) of PBS and Matrigel were injected as described above. […] Tumor volume was monitored every second day and calculated using the formula: TV = (a^2×b)/2, where “a” is the short axis in millimeters, and “b” is the long axis in millimeters. Body weight was assessed every day.

CYP1A2 = CYP1A2 (Homo sapiens, UniProt P05177); test: CYP isoforms inhibition; type: in vitro ADME; details: 5-dose, 3-fold dilution starting at 30 µM; in-house
CYP1A2, sequence (P05177 whole entry, canonical isoform): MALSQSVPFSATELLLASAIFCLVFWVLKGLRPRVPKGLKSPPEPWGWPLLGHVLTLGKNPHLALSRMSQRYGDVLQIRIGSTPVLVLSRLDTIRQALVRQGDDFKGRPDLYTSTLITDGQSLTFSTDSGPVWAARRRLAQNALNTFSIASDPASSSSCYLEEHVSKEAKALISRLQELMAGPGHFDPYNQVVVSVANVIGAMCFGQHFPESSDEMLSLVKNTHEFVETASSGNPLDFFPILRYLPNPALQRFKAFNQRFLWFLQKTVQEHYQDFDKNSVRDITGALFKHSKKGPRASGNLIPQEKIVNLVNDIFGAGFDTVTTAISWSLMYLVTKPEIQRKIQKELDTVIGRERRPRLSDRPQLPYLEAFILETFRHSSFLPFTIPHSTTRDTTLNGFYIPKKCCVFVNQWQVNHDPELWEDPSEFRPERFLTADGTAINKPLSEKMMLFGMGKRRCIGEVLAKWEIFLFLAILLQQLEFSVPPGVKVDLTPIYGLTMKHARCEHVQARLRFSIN
Protocol: (§4) or absence of enzyme cofactors. The assay was performed microsomes. (Supplementary Table 7).
(§5) with the respective reference samples (i.e. without measured at Cambridge Bioscience Limited (except
(§6) cofactors). After incubation, drug transformation by liver CYP1A2 inhibition which was measured in-house). The
(§7) enzymes was terminated by adding cold acetonitrile.
(§8) loss of compound was determined by LC-MS analysis. serial dilution starting at 30 μM. The control compound
(§9) The analysis of two standard compounds (i.e. positive a very weak potential for CYP inhibition with IC50
(§10) and negative controls) was included. […]

CYP2B6 = biological target: T1, CYP2B6 (Homo sapiens, UniProt P20813); test: CYP isoforms inhibition; type: in vitro ADME; details: 5-dose, 3-fold dilution starting at 30 µM
T1 construct: Cambridge Bioscience Limited (ran the assay)
T1 sequence (P20813 whole entry, canonical isoform): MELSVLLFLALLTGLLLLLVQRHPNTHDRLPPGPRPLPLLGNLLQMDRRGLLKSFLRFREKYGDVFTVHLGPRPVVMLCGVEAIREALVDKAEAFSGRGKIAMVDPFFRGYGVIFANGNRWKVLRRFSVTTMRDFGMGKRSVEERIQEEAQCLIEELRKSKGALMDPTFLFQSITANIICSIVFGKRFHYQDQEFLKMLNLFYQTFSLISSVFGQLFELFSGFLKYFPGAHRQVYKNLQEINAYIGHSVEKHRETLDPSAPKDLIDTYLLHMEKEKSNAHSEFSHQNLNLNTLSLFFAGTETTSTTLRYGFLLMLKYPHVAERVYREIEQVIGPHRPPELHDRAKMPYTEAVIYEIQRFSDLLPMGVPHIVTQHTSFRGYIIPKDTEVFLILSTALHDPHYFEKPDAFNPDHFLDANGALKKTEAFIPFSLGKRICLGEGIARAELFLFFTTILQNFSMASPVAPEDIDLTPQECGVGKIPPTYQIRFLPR
Protocol: as §4, §5, §6, §7, §8, §9, §10

CYP2C8 = biological target: T2, CYP2C8 (Homo sapiens, UniProt P10632); test: CYP isoforms inhibition; type: in vitro ADME; details: 5-dose, 3-fold dilution starting at 30 µM
T2 construct: Cambridge Bioscience Limited (ran the assay)
T2 sequence (P10632 whole entry, canonical isoform): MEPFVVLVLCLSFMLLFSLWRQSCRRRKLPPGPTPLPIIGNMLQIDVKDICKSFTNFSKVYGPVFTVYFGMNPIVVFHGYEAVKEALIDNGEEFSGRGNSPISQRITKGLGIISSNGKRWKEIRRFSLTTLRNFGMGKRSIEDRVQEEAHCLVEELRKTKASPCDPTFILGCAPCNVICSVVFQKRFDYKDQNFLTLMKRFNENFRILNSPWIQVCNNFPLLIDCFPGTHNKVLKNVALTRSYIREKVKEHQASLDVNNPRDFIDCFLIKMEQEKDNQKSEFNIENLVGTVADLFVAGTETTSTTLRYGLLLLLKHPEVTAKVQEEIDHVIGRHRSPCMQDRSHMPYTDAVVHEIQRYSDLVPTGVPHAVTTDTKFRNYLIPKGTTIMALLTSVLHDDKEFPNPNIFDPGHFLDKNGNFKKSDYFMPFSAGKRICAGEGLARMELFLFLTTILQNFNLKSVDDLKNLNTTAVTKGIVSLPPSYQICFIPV
Protocol: as §4, §5, §6, §7, §8, §9, §10

KG-1 = test: MTS viability assay, 72 h; details: Homo sapiens, KG-1, 72 h
Protocol: as §11

PIM3 = PIM3 (Homo sapiens, UniProt Q86V86); test: KINOMEscan Kd (DiscoverX); type: binding
SIG-M5 = test: MTS viability assay, 72 h; details: Homo sapiens, SIG-M5, 72 h
Protocol: On the same day, 50 μL of medium containing tested inhibitor was added to the wells. Each compound was tested at 8 concentrations, in triplicates. As a negative control, the medium containing 0.1% DMSO was used. […] Staurosporine was used at 10 μM as a positive control. One the day of drug addition, basal signal from untreated cells was measured from in triplicate to determine time zero (T0). […] GI50 and LC50 values were extrapolated from a variable (four-parameter) dose-response curve fitted in GraphPad Prism.

**Q.** For CC(C)n1c(C2CCNCC2)nc2c([N+](=O)[O-])c(Br)c(Br)cc21 [SEL24-B489, 5,6-dibromo-4-nitro-2-(piperidin-4-yl)-1-(propan-2-yl)-1H-1,3-benzodiazole], which half-life at 1 µM [1] is on record?
**A.** Its half-life at 1 µM is 21.8 h.

**Q.** And the Cmax ([2]; Sprague Dawley, 25 mg/kg)?
**A.** The Cmax was 913 ng/mL.

**Q.** What about the Tmax ([2]; Sprague Dawley, 25 mg/kg) of the same compound?
**A.** The Tmax was 6.7 h.

**Q.** What about the AUC(0-t) ([2]; Sprague Dawley) of the same compound?
**A.** The AUC(0-t) was 19600 ng·h/mL.

**Q.** What about the half-life ([2]; Sprague Dawley) of the same compound?
**A.** Its half-life is 10 h.

**Q.** And the bioavailability ([2]; Sprague-Dawley, 25 mg/kg, read-out: F (bioavailability))?
**A.** Its bioavailability is 52%.

**Q.** What about the GI50 (MOLM-13) of the same compound?
**A.** The GI50 was 73 nM.

**Q.** What about the CC50 (MOLM-13; read-out: LC50) of the same compound?
**A.** The CC50 was 446 nM.

**Q.** And the Cmax ([3]; 50 mg/kg)?
**A.** The Cmax was 2180 ng/mL.

**Q.** And the Tmax ([3]; 50 mg/kg)?
**A.** The Tmax was 4 h.

**Q.** And the bioavailability ([3]; 50 mg/kg, read-out: F (bioavailability))?
**A.** The bioavailability was 62%.

**Q.** And the AUC(0-t) [3]?
**A.** Its AUC(0-t) is 26200 ng·h/mL.

**Q.** What about the half-life [3] of the same compound?
**A.** Its half-life is 5.2 h.

**Q.** What about the half-life at 1 µM [4] of the same compound?
**A.** Its half-life at 1 µM is 7.2 h.

**Q.** And the ALB ([5]; SEL24-B489 25 mg/kg)?
**A.** Its ALB is 5.3 g/dL.

**Q.** And the ALP ([5]; SEL24-B489 25 mg/kg)?
**A.** The ALP was 94.2 U/L.

**Q.** And the AST ([5]; SEL24-B489 25 mg/kg)?
**A.** Its AST is 202.4 U/L.

**Q.** What about the CK ([5]; SEL24-B489 25 mg/kg) of the same compound?
**A.** Its CK is 2076 U/L.

**Q.** And the CREA ([5]; SEL24-B489 25 mg/kg)?
**A.** The CREA was 0.40 mg/dL.

**Q.** And the K ([5]; SEL24-B489 25 mg/kg)?
**A.** Its K is 5.3 mM.

**Q.** What about the TP ([5]; SEL24-B489 25 mg/kg) of the same compound?
**A.** The TP was 5.6 g/dL.

**Q.** And the UREA ([5]; SEL24-B489 25 mg/kg)?
**A.** Its UREA is 6.0 mmol/L.

**Q.** What about the ALB ([5]; SEL24-B489 50 mg/kg) of the same compound?
**A.** The ALB was 4.4 g/dL.

**Q.** And the ALP ([5]; SEL24-B489 50 mg/kg)?
**A.** Its ALP is 97.2 U/L.

**Q.** And the ALT ([5]; SEL24-B489 50 mg/kg)?
**A.** Its ALT is 49.4 U/L.

**Q.** What about the AST ([5]; SEL24-B489 50 mg/kg) of the same compound?
**A.** The AST was 135.2 U/L.

**Q.** What about the CK ([5]; SEL24-B489 50 mg/kg) of the same compound?
**A.** The CK was 1206 U/L.

**Q.** What about the CREA ([5]; SEL24-B489 50 mg/kg) of the same compound?
**A.** Its CREA is 0.49 mg/dL.

**Q.** And the K ([5]; SEL24-B489 50 mg/kg)?
**A.** Its K is 5.3 mM.

**Q.** And the Na ([5]; SEL24-B489 50 mg/kg)?
**A.** Its Na is 141 mM.

**Q.** And the TP ([5]; SEL24-B489 50 mg/kg)?
**A.** The TP was 5.1 g/dL.

**Q.** And the UREA ([5]; SEL24-B489 50 mg/kg)?
**A.** The UREA was 6.6 mmol/L.

**Q.** What about the half-life at 1 µM [6] of the same compound?
**A.** Its half-life at 1 µM is 6.3 h.

**Q.** What about the half-life at 1 µM [7] of the same compound?
**A.** Its half-life at 1 µM is 21.1 h.

**Q.** What about the TGI (MOLM-13 xenografts) of the same compound?
**A.** The TGI was ~ 50%.

**Q.** And the IC50 (CYP1A2)?
**A.** The IC50 was > 30000 nM.

**Q.** And the IC50 (CYP2B6)?
**A.** The IC50 was > 40000 nM.

**Q.** What about the IC50 (CYP2C8) of the same compound?
**A.** Its IC50 is > 30000 nM.

**Q.** What about the GI50 (KG-1) of the same compound?
**A.** Its GI50 is 67 nM.

**Q.** And the CC50 (KG-1; read-out: LC50)?
**A.** Its CC50 is 2440 nM.

**Q.** What about the Kd (PIM3) of the same compound?
**A.** Its Kd is 3 nM.

**Q.** And the GI50 (SIG-M5)?
**A.** Its GI50 is 806 nM.

**Q.** And the CC50 (SIG-M5; read-out: LC50)?
**A.** The CC50 was 3440 nM.

— publication PMC5908295 (Oncotarget, 2018)
